Results on 13 compounds are retold here after ChEMBL document CHEMBL3784914, “Bioactive lignan constituents from the twigs of Sambucus williamsii” (Bioorg Med Chem Lett, 2016).

Data set [1] is described as follows: Cytotoxicity against mouse BV2 cells assessed as cell viability at 20 uM by MTT assay. It is filed as cell-based, BV-2. To be noted: read-out: Activity. For orientation: Tetrazolium assays rely on reduction of a dye to a coloured formazan, in cell work by metabolically active cells.
The nature of data set [2]: Anti-neuroinflammatory activity in LPS-activated mouse BV2 cells assessed as inhibition of NO production after 24 hrs by Griess assay. It is filed as functional, cell-based. Particulars: BV-2, 24 h. For orientation: Nitrite, measured by Griess reagent, commonly stands in for NO production.
The subject of data set [3] is C6. Nature of the data set: Neuroprotective activity in rat C6 cells assessed as NGF secretion at 20 uM after 24 hrs by ELISA. It is filed as functional. In general terms: In an ELISA, binding on a coated surface is turned into a signal by an enzyme label.
The nature of data set [4]: Cytotoxicity against human SKOV3 cells by SRB assay. In kind it is functional, cell-based. Particulars: SK-OV-3.
For data set [5], the system named is XF498. As to the kind of experiment: Cytotoxicity against human XF498 cells by SRB assay. It is filed as functional, cell-based.
The subject of data set [6] is A549. As to the kind of experiment: Cytotoxicity against human A549 cells by SRB assay. In kind it is functional, cell-based.
The subject of data set [7] is SK-MEL-2. As to the kind of experiment: Cytotoxicity against human SK-MEL-2 cells by SRB assay. In kind it is functional, cell-based.
The nature of data set [8]: Cytotoxicity in rat C6 cells assessed as cell viability at 20 uM after 24 hrs by MTT assay. In kind it is cell-based. Particulars: read-out: Activity.

As usually defined, the IC50 is the concentration needed to halve the response being measured. Consider `CNC(=N)NCCC[C@H](N)C(=O)O` [TILARGININE], for which the viability at 20 µM in data set [1] came out at 102%. Besides, in data set [2], the IC50 was 20.8 µM.

Turning to `COc1cc([C@@H]2Oc3c(OC)cc(CCCO)cc3[C@H]2CO)ccc1O` [DIHYDRODEHYDRODICONIFERYL ALCOHOL], the viability at 20 µM in data set [1] amounted to 129%. In data set [3], the Activity was determined as 97.14%. Also, the concentration for half-maximal inhibition (IC50) was more than 30 µM in data set [4]; more than 30 µM in data set [5]; more than 30 µM in data set [6]; more than 30 µM in data set [7]; 40 µM in data set [2]. The viability at 24 h, 20 µM in data set [8] came to 105%.

With `COc1cc(/C=C\C(=O)OCCCc2cc(OC)c3c(c2)[C@@H](CO)[C@H](c2cc(OC)c(O[C@H](CO)[C@H](O)c4ccc(O)c(OC)c4)c(OC)c2)O3)ccc1O`, the viability at 20 µM in data set [1] came to 138%. Further, in data set [3], the Activity is listed as 155.96%. For the same compound, the IC50 in data set [4] worked out at 17.6 µM; in data set [5], 19.6 µM; in data set [6], 15.8 µM; in data set [7], 11.4 µM; in data set [2], 14.7 µM. The viability at 24 h, 20 µM in data set [8] was found to be 97%.

For `CCCCC/C=C/C(=O)CCc1ccc(O)c(OC)c1` [SHOGAOL], in data set [3], the Activity came out at 151.75%. Further, the viability at 24 h, 20 µM in data set [8] came to 105%.

With `COc1cc(C[C@H]2CO[C@H](c3ccc(O)c(OC)c3)[C@H]2CO)ccc1O` [LARICIRESINOL], in data set [1], the viability at 20 µM came out at 147%. Also, the Activity in data set [3] was determined as 77.31%. Moreover, the IC50 is more than 30 µM in data set [4]; more than 30 µM in data set [5]; more than 30 µM in data set [6]; more than 30 µM in data set [7]; 72.6 µM in data set [2]. In addition, the viability at 24 h, 20 µM in data set [8] was found to be 101%.

Take `COc1cc(C(O)[C@H]2CO[C@H](c3ccc(O)c(OC)c3)[C@H]2CO)ccc1O` (stereo not given in full): the viability at 20 µM in data set [1] was determined as 114%. Moreover, the Activity in data set [3] came out at 101.55%. For the same compound, the concentration for half-maximal inhibition (IC50) is more than 30 µM in data set [4]; more than 30 µM in data set [5]; more than 30 µM in data set [6]; more than 30 µM in data set [7]; 129 µM in data set [2]. For the same compound, the viability at 24 h, 20 µM in data set [8] was 104%.

Regarding `COc1cc([C@@H]2c3cc4c(cc3[C@@H](O[C@@H]3O[C@@H]5CO[C@@H](C)O[C@H]5[C@H](O)[C@H]3O)[C@H]3COC(=O)[C@H]23)OCO4)cc(OC)c1O` [ETOPOSIDE], the concentration for half-maximal inhibition (IC50) in data set [4] is 0.84 µM.

With `COc1cc(/C=C/C(=O)OCCCc2cc(OC)c3c(c2)[C@@H](CO)[C@H](c2cc(OC)c(O[C@H](CO)[C@H](O)c4ccc(O)c(OC)c4)c(OC)c2)O3)ccc1O`, in data set [1], the viability at 20 µM was 146%. Also, in data set [3], the Activity is reported as 153.99%. In addition, the half-maximal inhibitory concentration (IC50) in data set [4] came out at 17.5 µM; in data set [5], 18.4 µM; in data set [6], 16.4 µM; in data set [7], 14.1 µM; in data set [2], 7.04 µM. In addition, the viability at 24 h, 20 µM in data set [8] amounted to 82.7%.

Take `COc1cc(/C=C/C(=O)OCCCc2cc(OC)c3c(c2)[C@@H](CO)[C@H](c2cc(OC)c(O[C@@H](CO)[C@H](O)c4ccc(O)c(OC)c4)c(OC)c2)O3)ccc1O`: the viability at 20 µM in data set [1] came to 157%. Also, the Activity in data set [3] was 183.95%. The IC50 in data set [4] came out at 15.7 µM; in data set [5], 18.1 µM; in data set [6] it was 13.2 µM; in data set [7] it was 11.1 µM; in data set [2], 6.82 µM. For the same compound, the viability at 24 h, 20 µM in data set [8] came to 92.3%.

As for `COc1cc(C[C@H]2CO[C@H](c3ccc(O)c(OC)c3)[C@@]2(O)CO)ccc1O`, in data set [1], the viability at 20 µM came out at 151%. Moreover, in data set [3], the Activity came out at 107.88%. Moreover, the IC50 was more than 30 µM in data set [4]; more than 30 µM in data set [5]; more than 30 µM in data set [6]; more than 30 µM in data set [7]; 215 µM in data set [2]. The viability at 24 h, 20 µM in data set [8] was 103%.

As for `COc1cc([C@@H]2OC[C@@H]3[C@H]2CO[C@H]3c2ccc(O)c(OC)c2)ccc1O` [(+)-PINORESINOL], the viability at 20 µM in data set [1] is 148%. The Activity in data set [3] is 106.93%. In addition, the IC50 in data set [4] was more than 30 µM; in data set [5] it was more than 30 µM; in data set [6] it was more than 30 µM; in data set [7] it was more than 30 µM; in data set [2] it was 34.2 µM. In addition, the viability at 24 h, 20 µM in data set [8] was found to be 105%.

On to `COc1cc([C@H]2OC[C@H]3[C@@H]2CO[C@@H]3c2cc(OC)c(O)c(OC)c2)ccc1O`, for which, in data set [1], the viability at 20 µM worked out at 127%. In addition, the Activity in data set [3] is reported as 96.39%. Moreover, the IC50 in data set [4] was more than 30 µM; in data set [5], more than 30 µM; in data set [6], more than 30 µM; in data set [7], more than 30 µM; in data set [2], 45.6 µM. For the same compound, in data set [8], the viability at 24 h, 20 µM turned out to be 103%.

As for `COc1cc(C[C@@H]2CO[C@H](c3ccc(O)c(OC)c3)[C@]2(O)CO)ccc1O`, the viability at 20 µM in data set [1] was found to be 128%. Further, in data set [3], the Activity amounted to 107.97%. Further, the 50% inhibitory concentration (IC50) was more than 30 µM in data set [4]; more than 30 µM in data set [5]; more than 30 µM in data set [6]; more than 30 µM in data set [7]; more than 500 µM in data set [2]. Moreover, in data set [8], the viability at 24 h, 20 µM was 106%.
